Measured values published in the NIST ThermoML archive (doi:10.1016/j.jct.2012.03.034).
± gives the expanded uncertainty stated by the source.

Assay: xn = mol fraction of the nth substance listed
Settings: 101 kPa, Liquid; for speed of sound: Linear variable-path acoustic interferometer; for mass density: Vibrating tube method; for viscosity: dual vibrating plate viscometer, AandD Co. Ltd Model SV-10

CC(=O)O.CCN(CC)CC [triethylammonium acetate] + CN1CCCC1=O
Settings	mass density [kg/m3]	speed of sound [m/s]	viscosity [mPa·s]
298.15 K, x1 = 0.0138	1026.09 ± 0.3	1564 ± 2	1.61 ± 0.03
298.15 K, x1 = 0.0302	1026.34 ± 0.3	1559 ± 2	1.76 ± 0.04
298.15 K, x1 = 0.0813	1026.88 ± 0.3	1556 ± 2	2.79 ± 0.06
298.15 K, x1 = 0.117	1026.93 ± 0.3	1554 ± 2	3.21 ± 0.07
298.15 K, x1 = 0.1733	1026.39 ± 0.31	1555 ± 2	3.79 ± 0.08
298.15 K, x1 = 0.2751	1023.97 ± 0.3	1560 ± 2	4.02 ± 0.08
298.15 K, x1 = 0.3189	1022.57 ± 0.31	1566 ± 2	3.83 ± 0.08
298.15 K, x1 = 0.3865	1019.96 ± 0.3	1578 ± 2	3.58 ± 0.07
298.15 K, x1 = 0.5133	1015.18 ± 0.3	1603 ± 2	3.4 ± 0.07
298.15 K, x1 = 0.6561	1010.89 ± 0.3	1648 ± 2	4.71 ± 0.1
298.15 K, x1 = 0.8181	1009.29 ± 0.3	1714 ± 2	10.14 ± 0.22
298.15 K, x1 = 0.926	1011.5 ± 0.3	1776 ± 2	17.25 ± 0.36
298.15 K, x1 = 0.9642	1012.97 ± 0.31	1799 ± 2	20.16 ± 0.43
298.15 K, x1 = 1	1015.86 ± 0.31	1840 ± 2	24.12 ± 0.5
303.15 K, x1 = 0.0138	1024.21 ± 0.31	1555 ± 2	1.52 ± 0.03
303.15 K, x1 = 0.0302	1024.48 ± 0.3	1555 ± 2	1.84 ± 0.04
303.15 K, x1 = 0.0813	1024.64 ± 0.3	1553 ± 2	2.67 ± 0.06
303.15 K, x1 = 0.117	1024.37 ± 0.31	1554 ± 2	3.1 ± 0.06
303.15 K, x1 = 0.1733	1023.53 ± 0.31	1555 ± 2	3.42 ± 0.07
303.15 K, x1 = 0.2751	1020.86 ± 0.31	1561 ± 2	3.62 ± 0.07
303.15 K, x1 = 0.3189	1019.42 ± 0.31	1566 ± 2	3.55 ± 0.07
303.15 K, x1 = 0.3865	1016.89 ± 0.3	1579 ± 2	3.18 ± 0.07
303.15 K, x1 = 0.5133	1012.16 ± 0.3	1602 ± 2	2.7 ± 0.06
303.15 K, x1 = 0.6561	1007.69 ± 0.3	1645 ± 2	3.42 ± 0.07
303.15 K, x1 = 0.8181	1005.54 ± 0.3	1713 ± 2	8.21 ± 0.17
303.15 K, x1 = 0.926	1006.58 ± 0.3	1769 ± 2	14.2 ± 0.3
303.15 K, x1 = 0.9642	1007.74 ± 0.3	1797 ± 2	17 ± 0.36
303.15 K, x1 = 1	1009.58 ± 0.3	1824 ± 2	19.6 ± 0.41
308.15 K, x1 = 0.0138	1020.18 ± 0.31	1530 ± 2	1.5 ± 0.03
308.15 K, x1 = 0.0302	1020.47 ± 0.3	1533 ± 2	1.81 ± 0.04
308.15 K, x1 = 0.0813	1020.35 ± 0.3	1536 ± 2	2.61 ± 0.06
308.15 K, x1 = 0.117	1019.88 ± 0.3	1539 ± 2	3.03 ± 0.06
308.15 K, x1 = 0.1733	1018.8 ± 0.3	1544 ± 2	3.36 ± 0.07
308.15 K, x1 = 0.2751	1015.91 ± 0.3	1553 ± 2	3.28 ± 0.07
308.15 K, x1 = 0.3189	1014.49 ± 0.3	1559 ± 2	3.14 ± 0.07
308.15 K, x1 = 0.3865	1011.99 ± 0.3	1572 ± 2	2.59 ± 0.05
308.15 K, x1 = 0.5133	1007.46 ± 0.3	1593 ± 2	2.51 ± 0.05
308.15 K, x1 = 0.6561	1003.25 ± 0.29	1632 ± 2	3.1 ± 0.07
308.15 K, x1 = 0.8181	1000.89 ± 0.29	1698 ± 2	7.76 ± 0.16
308.15 K, x1 = 0.926	1001.01 ± 0.29	1753 ± 2	13.1 ± 0.27
308.15 K, x1 = 0.9642	1001.75 ± 0.29	1776 ± 2	14.98 ± 0.31
308.15 K, x1 = 1	1002.61 ± 0.29	1798 ± 2	16.13 ± 0.33
313.15 K, x1 = 0.0138	1015.8 ± 0.31	1525 ± 2	1.47 ± 0.03
313.15 K, x1 = 0.0302	1016.2 ± 0.3	1527 ± 2	1.72 ± 0.04
313.15 K, x1 = 0.0813	1016.66 ± 0.3	1529 ± 2	2.3 ± 0.05
313.15 K, x1 = 0.117	1016.4 ± 0.3	1530 ± 2	2.78 ± 0.06
313.15 K, x1 = 0.1733	1015.69 ± 0.3	1535 ± 2	3.04 ± 0.06
313.15 K, x1 = 0.2751	1013.39 ± 0.3	1543 ± 2	2.98 ± 0.06
313.15 K, x1 = 0.3189	1012.13 ± 0.3	1548 ± 2	2.83 ± 0.06
313.15 K, x1 = 0.3865	1010.15 ± 0.3	1561 ± 2	2.38 ± 0.05
313.15 K, x1 = 0.5133	1006.1 ± 0.29	1582 ± 2	2.34 ± 0.05
313.15 K, x1 = 0.6561	1002.5 ± 0.29	1616 ± 2	3.01 ± 0.06
313.15 K, x1 = 0.8181	1000.41 ± 0.29	1669 ± 2	7.08 ± 0.15
313.15 K, x1 = 0.926	1000.32 ± 0.29	1716 ± 2	11.65 ± 0.24
313.15 K, x1 = 0.9642	1000.61 ± 0.29	1735 ± 2	13.39 ± 0.28
313.15 K, x1 = 1	1000.97 ± 0.29	1752 ± 2	14.81 ± 0.31

CC[NH2+]CC.O=S(=O)([O-])O [diethylammonium hydrogen sulfate] + CN1CCCC1=O
Settings	mass density [kg/m3]	speed of sound [m/s]	viscosity [mPa·s]
298.15 K, x1 = 0.016	1050.6 ± 1.2	1559 ± 2	2.45 ± 0.07
298.15 K, x1 = 0.0347	1067.85 ± 0.9	1555 ± 2	3.33 ± 0.13
298.15 K, x1 = 0.092	1113.77 ± 0.86	1539 ± 2	9.94 ± 0.24
298.15 K, x1 = 0.1316	1140.71 ± 0.75	1534 ± 2	15.78 ± 0.37
298.15 K, x1 = 0.1916	1176.12 ± 0.65	1529 ± 2	27.2 ± 0.6
298.15 K, x1 = 0.2992	1222.46 ± 0.65	1518 ± 2	49.04 ± 1
298.15 K, x1 = 0.3455	1237.11 ± 0.61	1513 ± 2	59.35 ± 1.2
298.15 K, x1 = 0.4175	1253.31 ± 0.6	1508 ± 2	73.04 ± 1.5
298.15 K, x1 = 0.5442	1269.42 ± 0.65	1495 ± 2	92.75 ± 1.9
298.15 K, x1 = 0.6829	1275.63 ± 0.71	1481 ± 2	101.4 ± 2.1
298.15 K, x1 = 0.8359	1277.72 ± 0.73	1458 ± 2	87.14 ± 1.8
298.15 K, x1 = 0.9342	1282.39 ± 0.73	1440 ± 2	58.7 ± 1.2
298.15 K, x1 = 0.9684	1281.99 ± 0.72	1434 ± 2	46.45 ± 1
298.15 K, x1 = 1	1283.95 ± 0.71	1432 ± 2	34.1 ± 0.7
303.15 K, x1 = 0.016	1037.47 ± 0.94	1551 ± 2	–
303.15 K, x1 = 0.0347	1054.26 ± 0.82	1547 ± 2	0.95 ± 0.09
303.15 K, x1 = 0.092	1095.4 ± 0.81	1536 ± 2	7.28 ± 0.19
303.15 K, x1 = 0.1316	1122.07 ± 0.73	1529 ± 2	12.27 ± 0.29
303.15 K, x1 = 0.1916	1155.56 ± 0.63	1523 ± 2	21.6 ± 0.47
303.15 K, x1 = 0.2992	1196 ± 0.62	1515 ± 2	37.85 ± 0.8
303.15 K, x1 = 0.3455	1207.13 ± 0.57	1510 ± 2	45.88 ± 0.96
303.15 K, x1 = 0.4175	1219.69 ± 0.58	1505 ± 2	56.62 ± 1.2
303.15 K, x1 = 0.5442	1228.51 ± 0.61	1491 ± 2	72.49 ± 1.5
303.15 K, x1 = 0.6829	1229.8 ± 0.63	1474 ± 2	79.75 ± 1.6
303.15 K, x1 = 0.8359	1232.02 ± 0.64	1446 ± 2	69.13 ± 1.4
303.15 K, x1 = 0.9342	1235.49 ± 0.66	1423 ± 2	48.37 ± 1
303.15 K, x1 = 0.9684	1237.36 ± 0.65	1415 ± 2	35.95 ± 0.8
303.15 K, x1 = 1	1239.74 ± 0.64	1408 ± 2	28.9 ± 0.6
308.15 K, x1 = 0.016	1030.03 ± 0.78	1533 ± 2	–
308.15 K, x1 = 0.0347	1043.78 ± 0.75	1530 ± 2	0.67 ± 0.06
308.15 K, x1 = 0.092	1080.92 ± 0.73	1521 ± 2	4.42 ± 0.13
308.15 K, x1 = 0.1316	1103.13 ± 0.68	1518 ± 2	9.53 ± 0.24
308.15 K, x1 = 0.1916	1133.63 ± 0.63	1511 ± 2	17.3 ± 0.38
308.15 K, x1 = 0.2992	1169.38 ± 0.65	1503 ± 2	30.7 ± 0.65
308.15 K, x1 = 0.3455	1179.79 ± 0.64	1500 ± 2	36.84 ± 0.77
308.15 K, x1 = 0.4175	1190.23 ± 0.66	1496 ± 2	45.89 ± 0.95
308.15 K, x1 = 0.5442	1198.01 ± 0.7	1485 ± 2	57.51 ± 1.2
308.15 K, x1 = 0.6829	1198.27 ± 0.73	1468 ± 2	63.11 ± 1.3
308.15 K, x1 = 0.8359	1198.28 ± 0.77	1437 ± 2	55.29 ± 1.1
308.15 K, x1 = 0.9342	1200.49 ± 0.79	1414 ± 2	37.86 ± 0.81
308.15 K, x1 = 0.9684	1202.65 ± 0.8	1404 ± 2	27.69 ± 0.61
308.15 K, x1 = 1	1205.43 ± 0.79	1392 ± 2	24.6 ± 0.51
313.15 K, x1 = 0.016	1020.1 ± 0.58	1529 ± 2	–
313.15 K, x1 = 0.0346	1031.41 ± 0.63	1529 ± 2	0.48 ± 0.03
313.15 K, x1 = 0.092	1060.41 ± 0.64	1521 ± 2	2.06 ± 0.07
313.15 K, x1 = 0.1316	1079.57 ± 0.6	1516 ± 2	5.97 ± 0.17
313.15 K, x1 = 0.1916	1100.33 ± 0.62	1511 ± 2	13.15 ± 0.3
313.15 K, x1 = 0.2992	1123.81 ± 0.7	1502 ± 2	24.74 ± 0.52
313.15 K, x1 = 0.3455	1129.72 ± 0.72	1498 ± 2	30.42 ± 0.64
313.15 K, x1 = 0.4175	1134.34 ± 0.78	1491 ± 2	36.87 ± 0.77
313.15 K, x1 = 0.5442	1134.82 ± 0.87	1474 ± 2	46.82 ± 0.97
313.15 K, x1 = 0.6829	1128.95 ± 0.9	1450 ± 2	52.39 ± 1.1
313.15 K, x1 = 0.8359	1123.69 ± 0.95	1411 ± 2	46.21 ± 0.96
313.15 K, x1 = 0.9342	1123.28 ± 0.99	1382 ± 2	30.9 ± 0.66
313.15 K, x1 = 0.9684	1124.6 ± 1	1370 ± 2	23.03 ± 0.49
313.15 K, x1 = 1	1126.81 ± 1	1356 ± 2	21.9 ± 0.45
